According to ChEMBL document CHEMBL2074204, “The endothelin antagonist bosentan inhibits the canalicular bile salt export pump: a potential mechanism for hepatic adverse reactions” (Clin Pharmacol Ther, 2001):

Target: T1, Bile salt export pump (Rattus norvegicus, UniProt O70127)
T1 sequence (O70127 whole entry): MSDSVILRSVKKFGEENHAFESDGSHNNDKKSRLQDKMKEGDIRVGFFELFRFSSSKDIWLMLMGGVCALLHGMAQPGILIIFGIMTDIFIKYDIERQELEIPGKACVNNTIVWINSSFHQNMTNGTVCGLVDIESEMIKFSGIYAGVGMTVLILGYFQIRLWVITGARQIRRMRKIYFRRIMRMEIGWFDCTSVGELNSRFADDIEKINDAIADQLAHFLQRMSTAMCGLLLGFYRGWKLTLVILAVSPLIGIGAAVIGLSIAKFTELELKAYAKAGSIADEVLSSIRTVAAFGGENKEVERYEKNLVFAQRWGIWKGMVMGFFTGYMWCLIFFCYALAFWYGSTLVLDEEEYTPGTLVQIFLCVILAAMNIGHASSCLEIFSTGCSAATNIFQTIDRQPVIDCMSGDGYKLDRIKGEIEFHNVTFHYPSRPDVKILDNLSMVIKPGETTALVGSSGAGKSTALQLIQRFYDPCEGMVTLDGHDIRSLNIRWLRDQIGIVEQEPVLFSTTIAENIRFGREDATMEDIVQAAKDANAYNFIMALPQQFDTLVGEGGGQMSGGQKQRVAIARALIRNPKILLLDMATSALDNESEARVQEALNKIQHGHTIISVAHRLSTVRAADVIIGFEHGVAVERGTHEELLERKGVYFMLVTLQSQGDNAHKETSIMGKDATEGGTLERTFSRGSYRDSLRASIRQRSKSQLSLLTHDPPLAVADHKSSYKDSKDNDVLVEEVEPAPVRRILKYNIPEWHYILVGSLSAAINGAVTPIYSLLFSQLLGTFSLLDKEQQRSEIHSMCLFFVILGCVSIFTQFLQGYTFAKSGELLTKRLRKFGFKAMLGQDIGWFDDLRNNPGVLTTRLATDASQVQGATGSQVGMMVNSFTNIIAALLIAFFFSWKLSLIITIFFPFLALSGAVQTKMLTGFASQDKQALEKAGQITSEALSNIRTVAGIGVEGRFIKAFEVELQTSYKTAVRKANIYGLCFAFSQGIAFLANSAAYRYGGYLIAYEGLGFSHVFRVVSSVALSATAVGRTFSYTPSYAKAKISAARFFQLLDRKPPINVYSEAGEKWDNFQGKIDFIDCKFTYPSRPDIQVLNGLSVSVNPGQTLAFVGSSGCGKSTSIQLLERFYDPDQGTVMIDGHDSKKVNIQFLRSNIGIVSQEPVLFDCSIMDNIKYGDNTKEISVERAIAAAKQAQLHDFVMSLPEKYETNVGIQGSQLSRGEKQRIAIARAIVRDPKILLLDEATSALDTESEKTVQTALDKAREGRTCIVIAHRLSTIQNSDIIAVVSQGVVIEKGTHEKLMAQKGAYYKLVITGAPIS
Assay: TP_TRANSPORTER: inhibition of Taurocholate uptake in membrane vesicle from Bsep-expressing Sf9-cell
Assay type: functional, cell membranes

| SMILES | Ki |
| --- | --- |
| CC(C)(C)c1ccc(S(=O)(=O)Nc2nc(-c3ncccn3)nc(OCCO)c2Cc2ccccc2O)cc1 [BOSENTAN M2] | 8.5 µM |
| COc1ccccc1Oc1c(NS(=O)(=O)c2ccc(C(C)(C)C)cc2)nc(-c2ncccn2)nc1OCCO [BOSENTAN] | 12 µM |
